Patent US20260232578A1, “COMPOSITIONS AND METHODS FOR TRANSMUCOSAL ABSORPTION” (Tonix Pharma Limited, priority 2012, published 2026)
Where a name gives a salt, the structure may show the parent alone. Read-outs that look alike come from different tables or passages of the source.

Legend:
in vivo [1] = settings: beagle, dog; for AUC(0-t): AUCt
Protocol: Each dog was sampled at pre-dose before and after Propofol (when possible) and at 5, 10 and 20 minutes post-dose.

[2] = Protocol: The (KH2PO4) solution was prepared according to the current USP (USP 34) (Table 25). Briefly, 50 mL of 0.2 M monobasic potassium phosphate (KH2PO4) was mixed with 39.1 mL of 0.2 M NaOH, and water was added to bring the solution to a final volume of 200 mL. During the test, the change in the pH of the solution also was measured for each addition.
[3] = 25° C.; cited from earlier work
in vivo [4] = settings: female, beagle, dog, 0.14 mg/kg
Protocol: The protocol was designed as outlined in Table 23.
The method requires a lithium heparinized plasma sample volume of 200 μl. The extraction is a liquid liquid extraction with hexane, and the extracts are injected using an HPLC system and an […] (Applied Biosystems) for the MS/MS detection, with a “Onyx monolithic Phenomenex C18 100×3.0 mm” column.
Concentrations of the samples are calculated using Watson® 7.2.0.03 directly from chromatograms after automatic integration by Analyst® 1.5.1 and expressed as ng/mL. Mean plasma concentrations will be calculated (when calculable, i.e. n>2) using individual concentrations and will be expressed with the corresponding standard deviation value and variation coefficients (when calculable, i.e. n>3) (with CV(%)=(SD/mean)×100). The individual plasma concentrations are tabulated for each dog and scheduled sampling time. Concentrations below the LLOQ are designated as “BLQ.” All BLQ concentrations are substituted by zero for calculation of the descriptive statistics of the concentrations.
Pharmacokinetic analysis is carried out using […]® (Version 4.3 (Thermo Electron Corporation)). An independent model (non compartmental analysis) is used. All BLQ values in the absorption phase are substituted by zero, except for BLQ values between evaluable concentrations, which are treated as missing values, before the calculation of the pharmacokinetic variables. The terminal BLQ values are ignored. The following pharmacokinetic parameters are calculated:
5 non-naive female dogs are used, each dog receiving the test substance by oral administration via nasogastric tube to the stomach (NG) administration, sublingual administration (SL), and by intravenous (IV) administration. There is a “wash-out” period of at least two weeks between each type of administration. Blood samples are drawn as follows:
A single NG dose of 0.14 mg/kg (under a volume of 5 ml/kg and a solution concentration of 0.028 mg/mL) is administered.
After a wash-out period of at least 2 weeks, dogs are sedated using propofol (6.5 mg/kg IV). They will be then given a single sublingual dose of 0.14 mg/kg (under a volume of 0.056 mL/kg and a solution concentration of 2.5 mg/mL).
After a wash-out period of at least 2 weeks, dogs are given a single IV dose of 0.14 mg/kg (under a volume of 1 mL/kg, bolus of approximately 30 sec, and a solution concentration of 0.14 mg/mL).
Blood sampling was designed to minimize animal suffering and to ensure the quality of the biological samples, and was adapted from basic procedures commonly used in studies performed in dogs. Serial blood samples (1 tube of approximately 5 mL) are collected from a jugular vein using vacuum tubes containing lithium heparin. After sealing each tube, the blood samples are manually agitated and stored on ice until centrifugation (within 30 minutes of sampling). The samples are centrifuged at 1500 g, at 4° C., for 10 minutes. The entire resultant plasma obtained from each tube is immediately transferred to suitably labeled polypropylene tubes (3 aliquots of plasma of at least 500 μl each), which are stored upright at approximately −80° C. and protected from light until bioanalysis.
The dogs are fasted overnight before each administration, and food is given to the dogs 4 hours after each treatment. […] In each of the three routes, a potassium phosphate buffer (pH 7.4) is used as the vehicle.
As referred to in Example 4, a study was designed in order to assess the effects of the compositions and methods of the invention. […] The pharmacokinetic parameters were then calculated. A summary of the study design is as follows:
Blood was collected in a fasted condition for all three routes of administration. […] Briefly, the method involved liquid-liquid extraction with hexane. The extracts were injected using an HPLC system and an API4000® (Applied Biosystems) for the MS/MS detection, with an “Onyx monolithic Phenomenex C18 100×3.0 mm” column.

[5] = iv, Cyclobenzaprine plasma concentration
[6] = po, Cyclobenzaprine plasma concentration

With `CN(C)CCC=C1c2ccccc2C=Cc2ccccc21` [cyclobenzaprine HCl] the AUCt (in vivo [1]) was 22.78 ng·h/mL, the “Bioavailability F % IV without propofol vs sublingual with propofol” value (in vivo [1]) was 197.0% and the Cmax (in vivo [1]) was 92.23 ng/mL. It also gave a Tmax (in vivo [1]) of 10 min, an AUC(0-t) (in vivo [1]) of 17.4 ng·h/mL and a Cmax (in vivo [1]; Cmax) of 75.6 ng/mL. The AUCt (in vivo [1]; iv) was 11.56 ng·h/mL, the Cmax (in vivo [1]; iv) was 40.10 ng/mL and the Tmax (in vivo [1]; iv) was 5 min. For the same compound, the AUC(0-t) (in vivo [1]; iv) was 7.67 ng·h/mL, the Cmax (in vivo [1]; iv, Cmax) was 26.8 ng/mL and the pH value ([2]; 10 g added to 100 mL Phosphate Buffer Solution pH 7.4) was 6.43. The pH value ([2]; 10 g added to 100 mL purified water) was 3.31, the pH value ([2]; 15 g added to 100 mL Phosphate Buffer Solution pH 7.4) was 6.29 and the pH value ([2]; 15 g added to 100 mL purified water) was 3.24. For the same compound, the pH value ([2]; 20 g added to 100 mL Phosphate Buffer Solution pH 7.4) was 6.21, the pH value ([2]; 20 g added to 100 mL purified water) was 3.16 and the pH value ([2]; 25 g added to 100 mL Phosphate Buffer Solution pH 7.4) was 6.15. For the same compound, the pH value ([2]; 25 g added to 100 mL purified water) was 3.11, the pH value ([2]; 30 g added to 100 mL Phosphate Buffer Solution pH 7.4) was 6.10 and the pH value ([2]; 30 g added to 100 mL purified water) was 3.07. For the same compound, the “solubility state in solution” value ([2]; […] at 7.4 containing K2HPO4 or KH2PO4) was “close to its saturation point”, the “acid dissociation constant (pKa) for the amine group” value [3] was “approximately 8.5” and the AUC(0-inf) (in vivo [4]; iv, AUCinf) was 44.9 ± 4.15 ng·h/mL. The AUC(0-t) (in vivo [4]; iv, AUCt) was 43.5 ng·h/mL, the clearance (in vivo [4]; iv, Cl) was 52.3 mL/min/kg and the concentration at 10 min (in vivo [4]; [5]) was 21.1 ng/mL. The concentration at 20 min (in vivo [4]; [5]) was 17.3 ng/mL, the concentration at 0.5 h (in vivo [4]; [5]) was 14.3 ng/mL and the concentration at 1 h (in vivo [4]; [5]) was 9 ng/mL. The concentration at 2 h (in vivo [4]; [5]) was 6.5 ng/mL, the concentration at 3 h (in vivo [4]; [5]) was 4.43 ng/mL and the concentration at 24 h (in vivo [4]; [5]) was 0.1 ng/mL. The “Cl (Cl/F)” value (in vivo [4]; po) was 1206 mL/min/kg, the Kel (in vivo [4]; po) was 0.4782 h⁻¹ and the CL/F (in vivo [4]; po, Cl (Cl/F)) was 1210 mL/min/kg. For the same compound, the concentration at 6 h (in vivo [4]; [6]) was 0.15 ng/mL, the concentration at 8 h (in vivo [4]; [6]) was 0.126 ng/mL and the concentration at 10 h (in vivo [4]; [6]) was 0.112 ng/mL. For the same compound, the Vd/F (in vivo [4]; po, Vd (Vd/F)) was 151 L/kg and the half-life (in vivo [4]; po, t1/2) was 86.9 min.
